# Biological target: T1, Human 11βHSD1 (Homo sapiens, UniProt P28845)
# T1 construct: the enzyme source, native hepatic enzyme compared to recombinant enzyme; tissue XenoTech H0610/Lot 0210078; host or cells: human hepatic microsomes
# Experiment: 11β HSD1 cortisol radioimmunoassay (RIA) with human hepatic microsomes
# Type: biochemical
# Conditions: read-out: % inhibition of Human 11βHSD1 @ 10 μM
# Procedure: Biological Assay Development Using Human 11β-Hydroxysteroid Dehydrogenase Type 1. Standard Operating Procedure for the 11β-Hydroxysteroid Dehydrogenase Type 1 Cortisol Radioimmunoassay. 11β HSD1 Cortisol RIA
# Enzyme assay buffer: 30 mM Tris-HCL, pH 7.2 containing 1 mM EDTA
# Antibody binding buffer: 50 mM Tris-HCL, pH 8, containing 0.1 M NaCl and 0.1% gelatin
# Dilute into assay buffer 1 in 25. Also dilute neat DMSO 1 in 25 into assay buffer for controls.
# Dilute this 1 in 50 into assay buffer.
# Prepare NADPH as a 1.8 mg/ml solution in assay buffer.
# Mix these 3 solutions 1:1:1 to make a solution of sufficient volume for 25 μl additions to each sample. Add 0.5 μCi tritiated cortisone per 25 μl and mix the solution well.
# Microsome preparation: Dilute stock 20 mg/ml solution 1 in 100 with assay buffer.
# Dextran coated charcoal preparation: Make a 20 mg/ml solution in antibody binding buffer and chill on ice.
# Enzyme assay: To a u-bottom polypropylene 96 well plate add:
# 25 μl compound dilution or diluted DMSO to controls, NSB's and blanks
# 10 μl 1 mM GA in DMSO (enzyme stop solution) to blanks
# 25 μl substrate mixture to all samples
# 50 μl diluted microsomes to all samples
# Incubate plate for 30 min at 37° C. shaking
# Add 10 μl enzyme stop solution to all wells except the blanks
# Add 100 μl antibody solution to all wells except the NSB's, add antibody binding buffer to these wells
# Incubate at 37° C. for 1 h
# Chill plate on ice for 15 min
# Add 50 μl/well charcoal solution and mix with an 8-channel pipette (4-5 aspirations)
# Centrifuge at 4° C., 2000×g for 15 min
# Transfer 100 μl supernatant into an Optiplate, also add 25 μl substrate mixture to 2 empty wells to indicate counting efficiency
# Add 200 μl Microscint-40 to all wells and count on a Topcount
# The 11β HSD1 enzyme assay was carried out following the standard operating procedure described above in u-bottom polypropylene 96 well plates or 1.5 ml Eppendorf tubes as indicated for each experiment. Subsequent to stopping the enzyme reaction, 100 μl antibody prepared in buffer 3 unless otherwise indicated was added to test samples and 100 μl buffer 3 was added to the NSB samples. The samples were incubated for 1 hour at 37° C. and the chilled on ice for 15 mins. Dextran coated charcoal (50 μl/sample) prepared to the indicated concentration in buffer 3 was added and the samples were mixed (vortex for tubes and aspiration 5 times with an 8-channel pipette for 96 well plates) and chilled for a further 10 min. The samples were centrifuged at 2000×g for 15 min at 4° C. to pellet the charcoal. Aliquots of the supernatant (100 μl) were transferred to an Optiplate and counted on the Topcount in 150-200 μl Microscint 40. In some experiments, aliquots of supernatant were transferred to scintillation vials and counted on the Tricarb LSC in 5 ml Ultima Gold scintillant.
# Substrate saturation was examined. The enzyme assay was carried out exactly described in the methods section, in Buffer 3 with 10 μg/well microsomal protein and with [cold cortisone] as indicated. [3H]-cortisone was 0.5 μCi/sample throughout. The reaction was stopped after 30 min by the addition of 10 μl stop solution. The RIA was carried out exactly as indicated in the methods section.
# It is reported that DMSO can both increase and reduce microsomal enzyme activity, depending on the concentration, presumably due to effects on the microsomal membranes.
# T1 sequence (P28845 whole entry): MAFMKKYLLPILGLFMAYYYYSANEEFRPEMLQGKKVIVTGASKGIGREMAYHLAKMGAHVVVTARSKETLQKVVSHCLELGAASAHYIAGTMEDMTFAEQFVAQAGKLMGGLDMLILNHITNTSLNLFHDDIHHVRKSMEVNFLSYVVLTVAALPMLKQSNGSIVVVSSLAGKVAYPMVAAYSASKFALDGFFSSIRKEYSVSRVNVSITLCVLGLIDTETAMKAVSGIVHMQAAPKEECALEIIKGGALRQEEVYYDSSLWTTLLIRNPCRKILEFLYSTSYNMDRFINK
row,SMILES,inhibition at 10 µM [%]
1,Cc1nc2cc(NS(=O)(=O)c3c(Cl)cc(Cl)cc3Cl)ccc2s1 [compound 522],47
2,Cc1nc2cc(NS(=O)(=O)c3cccc4ccccc34)ccc2s1 [compound 553],48
3,Cc1nc2cc(NS(=O)(=O)c3ccc(Br)cc3)ccc2s1 [compound 519],48
4,Cc1nc2cc(NS(=O)(=O)c3ccc(Br)cc3C)ccc2s1 [compound 523],61
5,Cc1nc2cc(N(C)S(=O)(=O)c3cccc(Cl)c3C)ccc2s1 [compound 469],66
6,COC(=O)c1ccccc1S(=O)(=O)Nc1ccc2sc(C)nc2c1 [compound 705],28
7,CCCc1ccc(S(=O)(=O)Nc2ccc3sc(C)nc3c2)cc1 [compound 421],42
8,CC(=O)c1ccccc1S(=O)(=O)Nc1ccc2sc(C)nc2c1 [compound 701],41
9,Cc1nc2cc(NS(=O)(=O)c3cccc(Cl)c3C)ccc2s1 [compound 413],29
10,Cc1nc2cc(NS(=O)(=O)c3c(C)c(C)c(C)c(C)c3C)ccc2s1 [compound 710],35
11,Cc1nc2cc(NS(=O)(=O)c3c(C)cccc3Cl)ccc2s1 [compound 425],41
12,CCN(c1ccc2sc(C)nc2c1)S(=O)(=O)c1cccc(Cl)c1C [compound 470],54
13,COc1ccc(S(=O)(=O)Nc2ccc3sc(C)nc3c2)cc1 [compound 424],47
14,Cc1nc2cc(NS(=O)(=O)c3ccc(C(C)C)cc3)ccc2s1 [compound 704],44
15,Cc1nc2cc(NS(=O)(=O)c3ccc(Oc4ccccc4)cc3)ccc2s1 [compound 585],58
16,Cc1nc2cc(NS(=O)(=O)c3ccc(-c4ccccc4)cc3)ccc2s1 [compound 521],60
17,Cc1nc2cc(NS(=O)(=O)c3c(C(C)C)cc(C(C)C)cc3C(C)C)ccc2s1 [compound 703],37
18,Cc1nc2cc(NS(=O)(=O)c3cccc4c(N(C)C)cccc34)ccc2s1 [compound 554],53
19,Cc1nc2cc(NS(=O)(=O)c3ccc(C(C)(C)C)cc3)ccc2s1 [compound 709],49
20,Cc1nc2cc(NS(=O)(=O)c3ccccc3C#N)ccc2s1 [compound 583],28
21,Cc1nc2cc(NS(=O)(=O)c3ccc(Cl)cc3Cl)ccc2s1 [compound 412],36
22,Cc1nc2cc(NS(=O)(=O)c3cccc4cccnc34)ccc2s1 [compound 552],45
23,COc1ccc(Cl)cc1S(=O)(=O)Nc1ccc2sc(C)nc2c1 [compound 582],34
24,Cc1nc2cc(NS(=O)(=O)c3cc(Cl)ccc3Cl)ccc2s1 [compound 580],30
25,CCSc1nc2ccc(NS(=O)(=O)c3cccc(Cl)c3C)cc2s1 [compound 751],22
26,Cc1nc2cc(NS(=O)(=O)c3ccc4c(c3)CN(C(=O)C(F)(F)F)CC4)ccc2s1 [compound 581],29
27,COc1cc(C)ccc1S(=O)(=O)Nc1ccc2sc(C)nc2c1 [compound 584],20
28,COc1c(C)c(C)c(S(=O)(=O)Nc2ccc3sc(C)nc3c2)c(C)c1C [compound 708],21
